We go through 18 molecules from patent US8614239B2 (Novartis AG, priority 2009, dated 2013).

The subject of test [1] is BRAF (V599E)-MEK1-ERK2 cascade (MAP kinase pathway). The test can be described thus: BRAF-MEK-ERK enzymatic cascade assay (TR-FRET). The class given is biochemical, human. The conditions noted are these: compound at 10 μM, 45 min pre-incubation with enzymes, 100 μM ATP, 90 min reaction. The source says:
A BRAF-MEK-ERK cascade assay is used to evaluate the effects of these compounds as inhibitors of the MAP kinase pathway. An enzymatic cascade assay is set up using recombinant human activated BRAF (V599E) kinase (Cat No. 14-557), human full length unactive MEK1 kinase (Cat No. 14-706) and human full length unactive MAP Kinase 2/ERK2 (Cat No. 14-536) enzymes procured from Upstate. TR-FRET (Time resolved fluorescence resonance energy transfer) detection technology is used for the read out. The assay buffer solution contains 50 mM Tris pH 7.5, 10 mM MgCl2, 1 mM DTT, 0.01% Tween 20, 0.1 nM activated BRAF, 2 nM unactive MEK1, 10 nM unactive ERK2, 100 μM ATP and 500 nM long chain biotin-peptide substrate (LCB-FFKNIVTPRTPPP) in a 384 well format. The kinase reaction is stopped after 90 minutes with 10 mM EDTA and Lance detection mix (2 nM Eu-labeled phospho-serine/threonine antibody (Cat. No. AD0176-Perkin Elmer), 20 nM SA-APC (Cat No. CR130-100-Perkin Elmer) is added. The TR-FRET signal (Excitation at 340 nm, Emission at 615 nm and 665 nm) is read with […] on a Victor3 V fluorimeter. The data is calculated using the ratio of readings at 665 nm to 615 nm. The final concentration of DMSO is 2.5% in the assay. Compounds are screened at 10 μM concentration with pre-incubation of the enzymes in the presence of test compound for 45 minutes. […]
These assays described above are fully detailed in Han, Shulin, et. al., Bioorganic & Medicinal Chemistry Letters (2005) 15, 5467-5473, and in Yeh, et. al., Clin Cancer Res (2007) 13 (5), 1576-1583.
(§1) The compounds of the above Examples were evaluated as inhibitors of the MAP kinase pathway in a BRAF-MEK-ERK enzymatic cascade assay and in a cell viability assay, the results of which are collated in Table 1 below.

Test [2] has as its system A375 cells. Put plainly: Cell viability assay in A375 cells (XTT). The class given is cell-based. The conditions noted are these: XTT read-out three days after compound addition. On the procedure: The cell viability assay in A375 cells is set up in a 96-well plate format using XTT. XTT is a yellow tetrazolium salt that is cleaved to an orange formazan dye by the mitochondria of metabolically active cells. The procedure allows for rapid determination in a microtitre plate, to give reproducible and sensitive results.
A375 cells are grown in DMEM media containing 10% FBS and 1 mM sodium pyruvate. Cells are trypsinized and seeded at 1000 cells/well. After allowing the cells to adhere overnight, compound is added to the wells at the following final concentrations: 10, 3, 1, 0.3, 0.1, 0.03, 0.01, 0.001, and 0.0001 μM. The assay is set up in triplicates for each concentration. DMSO concentrations are kept at 0.5%/well. Three days after compound addition, the XTT assay is performed. Wells are washed once with PBS. 100 μL of DMEM media without phenol red or FBS is added to each well. A working solution of XTT containing 1 mg/ml XTT and 100 μL of PMS (stock concentration 0.383 mg/ml) per 5 ml is prepared. 50 μL of the working solution of XTT is added to each well. Absorbance of the plate is read at 465 nm using a Spectramax 190 (Molecular Devices). The absorbance from wells with media and XTT alone, but without cells is considered the blank and subtracted from readings from all wells.
Percentage viability is calculated considering the blank subtracted value from wells treated with DMSO alone as 100% viable. G150 values are calculated using Graphpad Prism, using non-linear regression curve fit for sigmoidal dose response (variable slope).
The cell viability assay is further described in Scudiero, et. al., Cancer Research (1988) 48, 4827-4833; Weislow, et. al., J. Natl. Cancer Institute, (1989) 81, 577-586; and Roehm, et. al., J. Immunol. Methods [1991] 142:257-265.
as §1

Structures are written as SMILES.

As to `Cc1nc2c(F)c(F)c(Nc3ccc(I)cc3F)c(NS(=O)(=O)C3CC3)c2o1` [Example 1E, Cyclopropanesulfonic acid [4,5-difluoro-6-(2-fluoro-4-iodo-phenylamino)-2-methyl-benzooxazol-7-yl]amide], the “% inhibition (10 μM)” value in test [1] is recorded as 93%. In addition, the 50% growth inhibitory concentration (GI50) in test [2] (Homo sapiens, A-375, 72 h) is 1000 nM.

On to `O=S(=O)(Nc1c(Nc2ccc(Br)cc2F)c(F)c(F)c2ncoc12)C1CC1` [Example 1G], for which the “% inhibition (10 μM)” value in test [1] was determined as 92%. In addition, the GI50 in test [2] (Homo sapiens, A-375, 72 h) is more than 10000 nM.

As for `O=S(=O)(Nc1c(Nc2ccc(I)cc2F)c(F)c(F)c2ncoc12)C1CC1CO` (centres unmarked) [Example 1L, N-(4,5-Difluoro-6-(2-fluoro-4-iodophenylamino)benzo[d]oxazol-7-yl)-2-(hydroxymethyl)cyclopropane-1-sulfonamide], the “% inhibition (10 μM)” value in test [1] came to 99%. Further, the 50% growth inhibitory concentration (GI50) in test [2] (Homo sapiens, A-375, 72 h) amounted to 2700 nM.

For the molecule `O=S(=O)(Nc1c(Nc2ccc(I)cc2F)c(F)c(F)c2ncoc12)C1(CC(O)CO)CC1` (single isomer, unassigned) [Example 1J-isomer 2, N-(4,5-Difluoro-6-(2-fluoro-4-iodophenylamino)benzo[d]oxazol-7-yl)-1-(2,3-dihydroxypropyl)cyclopropane-1-sulfonamide], the “% inhibition (10 μM)” value in test [1] worked out at 99%. Besides, the GI50 in test [2] (listed as 1J-isomer 2) came out at 46 nM.

`O=S(=O)(Nc1c(Nc2ccc(I)cc2F)c(F)c(F)c2ncoc12)C1(COCc2ccccc2)CC1` [Example 1M, 1-(Benzyloxymethyl)-N-(4,5-difluoro-6-(2-fluoro-4-iodophenylamino)benzo[d]oxazol-7-yl)cyclopropane-1-sulfonamide]: the “% inhibition (10 μM)” value in test [1] was 95%. Also, the 50% growth inhibitory concentration (GI50) in test [2] (Homo sapiens, A-375, 72 h) turned out to be 3550 nM.

With `O=S(=O)(Nc1c(Nc2ccc(I)cc2F)c(F)c(F)c2ccoc12)C1(CCO)CC1` [Example 2C, 1-(2-Hydroxy-ethyl)-cyclopropanesulfonic acid [4,5-difluoro-6-(2-fluoro-4-iodo-phenylamino)-benzofuran-7-yl]amide], in test [1], the “% inhibition (10 μM)” value came to 100%. Besides, the GI50 in test [2] (Homo sapiens, A-375, 72 h) was found to be 12 nM.

For the molecule `O=S(=O)(Nc1c(Nc2ccc(I)cc2F)c(F)c(F)c2ncoc12)C1CC1COCc1ccccc1` (centres unmarked) [Example 1K, 2-(Benzyloxymethyl)-N-(4,5-difluoro-6-(2-fluoro-4-iodophenylamino)benzo[d]oxazol-7-yl)cyclopropane-1-sulfonamide], the “% inhibition (10 μM)” value in test [1] is listed as 100%. For the same molecule, the GI50 in test [2] (Homo sapiens, A-375, 72 h) turned out to be 5700 nM.

As for `C=CCC1(S(=O)(=O)Nc2c(Nc3ccc(I)cc3F)c(F)c(F)c3ncoc23)CC1` [Example 1D, 1-Allyl-cyclopropanesulfonic acid [4,5-difluoro-6-(2-fluoro-4-iodo-phenylamino)-benzooxazol-7-yl]-amide], in test [1], the “% inhibition (10 μM)” value worked out at 100%. In test [2] (Homo sapiens, A-375, 72 h), the 50% growth inhibitory concentration (GI50) came to 940 nM.

`O=S(=O)(Nc1c(Nc2ccc(I)cc2F)c(F)c(F)c2ncoc12)C1(CC(O)CO)CC1` (centres unmarked) [Example 1I, 1-(2,3-Dihydroxy-propyl)-cyclopropanesulfonic acid [4,5-difluoro-6-(2-fluoro-4-iodo-phenylamino)-benzooxazol-7-yl]-amide]: the “% inhibition (10 μM)” value in test [1] is on record as 100%. The 50% growth inhibitory concentration (GI50) in test [2] (Homo sapiens, A-375, 72 h) came to 47 nM.

With `O=S(=O)(Nc1c(Nc2ccc(I)cc2F)c(F)c(F)c2ccoc12)C1CC1` [Example 2A, Cyclopropane sulfonic acid [4,5-difluoro-6-(2-fluoro-4-iodo-phenylamino)-benzofuran-7-yl]amide], the “% inhibition (10 μM)” value in test [1] is given as 99%. Besides, the GI50 in test [2] (Homo sapiens, A-375, 72 h) worked out at 29 nM.

Turning to `O=S(=O)(Nc1c(Nc2ccc(I)cc2F)c(F)c(F)c2ccoc12)C1CC1CO` (centres unmarked) [Example 2D, 2-Hydroxymethyl-cyclopropanesulfonic acid [4,5-difluoro-6-(2-fluoro-4-iodo-phenylamino)-benzofuran-7-yl]-amide], the “% inhibition (10 μM)” value in test [1] was found to be 99%. Also, in test [2] (Homo sapiens, A-375, 72 h), the GI50 came to 119 nM.

With `O=S(=O)(Nc1c(Nc2ccc(I)cc2F)c(F)c(F)c2ccoc12)C1(CC(O)CO)CC1` (centres unmarked) [Example 2B, 1-(2,3-Dihydroxy-propyl)-cyclopropanesulfonic acid [4,5-difluoro-6-(2-fluoro-4-iodo-phenylamino)-benzofuran-7-yl]amide], the “% inhibition (10 μM)” value in test [1] is 100%. Also, the GI50 in test [2] (Homo sapiens, A-375, 72 h) worked out at 17 nM.

Regarding `CN(C)S(=O)(=O)Nc1c(Nc2ccc(I)cc2F)c(F)c(F)c2ncoc12` [Example 1C, Dimethylsulfamic acid [4,5-difluoro-6-(2-fluoro-4-iodo-phenylamino)-benzooxazol-7-yl]amide], in test [1], the “% inhibition (10 μM)” value is on record as 100%. In addition, the concentration for 50% growth inhibition (GI50) in test [2] (Homo sapiens, A-375, 72 h) was found to be 646 nM.

In the case of `Cc1nc2c(F)c(F)c(Nc3ccc(Br)cc3F)c(NS(=O)(=O)C3CC3)c2o1` [Example 1H, Cyclopropanesulfonic acid [6-(4-bromo-2-fluoro-phenylamino)-4,5-difluoro-2-methyl-benzooxazol-7-yl]-amide], in test [1], the “% inhibition (10 μM)” value was found to be 10%.

`O=S(=O)(Nc1c(Nc2ccc(I)cc2F)c(F)c(F)c2ncoc12)C1(CO)CC1` [Example 1N, N-(4,5-Difluoro-6-(2-fluoro-4-iodophenylamino)benzo[d]oxazol-7-yl)-1-(hydroxymethyl)cyclopropane-1-sulfonamide]: the “% inhibition (10 μM)” value in test [1] turned out to be 100%. The GI50 in test [2] (Homo sapiens, A-375, 72 h) worked out at 186 nM.

Regarding `O=S(=O)(Nc1c(Nc2ccc(I)cc2F)c(F)c(F)c2ncoc12)C1(CC(O)CO)CC1` (single isomer, unassigned) [Example 1J-isomer 1, N-(4,5-Difluoro-6-(2-fluoro-4-iodophenylamino)benzo[d]oxazol-7-yl)-1-(2,3-dihydroxypropyl)cyclopropane-1-sulfonamide], in test [1], the “% inhibition (10 μM)” value is listed as 99%. In addition, the GI50 in test [2] (listed as 1J-isomer 1) came out at 96 nM.

On to `CN(C)S(=O)(=O)Nc1c(Nc2ccc(Br)cc2F)c(F)c(F)c2ncoc12` [Example 1F, Dimethylsulfamic acid [4,5-difluoro-6-(2-fluoro-4-bromo-phenylamino)-benzooxazol-7-yl]-amide], for which, in test [1], the “% inhibition (10 μM)” value turned out to be 99%. Besides, the 50% growth inhibitory concentration (GI50) in test [2] (Homo sapiens, A-375, 72 h) worked out at 2370 nM.

Consider `Cc1nc2c(F)c(F)c(Nc3ccc(I)cc3F)c(NS(=O)(=O)N(C)C)c2o1` [Example 1B, Dimethylsulfamic acid [4,5-difluoro-6-(2-fluoro-4-iodo-phenylamino)-2-methyl-benzooxazol-7-yl]-amide], for which the “% inhibition (10 μM)” value in test [1] came out at 100%. The GI50 in test [2] (Homo sapiens, A-375, 72 h) came out at 2010 nM.
